In US10617677B2, “Nuclear transport modulators and uses thereof” (Biogen MA Inc., priority 2012, dated 2020):
Blank lines part the entries; values can stand above or below the compound they belong to.

Columns and labels:
[1] = system: NF-κB; assay: NF-κB transcriptional activity in TNFα-induced HeLa cells; assay type: cell-based; conditions: Homo sapiens, 1 h pre-treatment, then 4 h of 20 ng/mL TNFα, average of three experiments, read-out: IC50, inhibition of NF-κB transcriptional activity
Protocol: The compounds were tested on HeLa (adenocarcinoma) cells to quantify their ability to inhibit NF-κB transcriptional activity. NF-κB activity was induced in HeLa cells by TNFα, and then the compounds were added to inhibit the induced NF-κB activity. Half maximal inhibitory concentrations (IC50) of several compounds, namely Compound 1, Compound 2 and Compound 12, were determined by dose response studies.
HeLa cells were plated in a 12-well plate (200,000 cells/well) and cultured in Eagle's Minimal Essential medium (EMEM) from Lonza supplemented with 10% heat-inactivated fetal bovine serum (Invitrogen) and 50 μg/mL penicillin/streptomycin (Invitrogen), and were left overnight to attach. Cells were pre-treated with serial diluted (started at 30 µM; 1:3 dilution) compounds for 1 h and then exposed to 20 ng/mL TNFα (Peprotech) for 4 h in serum free media. After the treatment, the cells were washed with PBS (Invitrogen), and lysed with RIPA buffer (Themo Scientific). The transcription activity of NF-κB in the cells was measured by Chemiluminescent Transcription Factor Assay kit (Thermo Scientific Catalog #89859), according to the manufacturer's instruction. Briefly, 1.5 mg/mL of RIPA lysed whole cell extract from each treatment were incubated in a 96-well plate bound with NF-κB biotinylated-consensus sequence. The active NF-κB transcription factor bound to the consensus sequence was incubated with NF-κB p65 primary antibody and then with a secondary HRP-conjugated antibody. A chemiluminescent substrate was added to the wells and the resulting signal was detected using a luminometer. Three separate experiments were analyzed for each concentration of the IC50 curves. XLFit model 205 was used to calculate IC50 curves.
Inhibition of NF-κB transcriptional activity was measured by serial dilutions of Compound 1, Compound 2 and Compound 12 after 1 h of compound pre-treatment followed by 4 h of 20 ng/mL TNFα exposure. Three independent experiments were scored for each concentration, with the average being presented here.

[2] = Pharmacokinetics (plasma AUCInf) in mice; assay type: in vivo; conditions: 10 mg/kg po
Protocol: Blood was collected from mice (N=3) to contribute to the total of 10 time points (pre-dose, 5 min, 15 min, 30 min, 1 hour, 2 hours, 4 hours, 8 hours, 12 hours and 24 hours post dose). Mice were bled on a rotating basis, each mouse contributing 3 time points to the blood collection. At the designated time points, animals were anaesthetized under isoflurane, and approximately 110 μL of blood per time point was collected via retro-orbital puncture into pre-cooled K2EDTA (anti-coagulant) tubes. Blood samples were put on wet ice and centrifuged (2000 g, 5 min at 4° C.) to obtain plasma within 30 minutes of sample collection. All samples were stored frozen at approximately −80° C. until analysis. Prior to analysis, samples were mixed with internal standard (dexamethasone) in acetonitrile, vortexed, centrifuged, and supernatant was injected for analysis. Concentration of compounds in plasma was determined using LC-MS-MS instrumentation (API 4000, Triple Quadruple with electrospray ionization; Acuity Ultra Performance Liquid Chromatography column C18, with MeOH and formic acid as organic solvents). PK parameters including but not limited to Tmax, Cmax, t1/2, AUClast, AUCInf were calculated using WinNonlin Professional 6.2 software package, non-compartmental pharmacokinetic model NCA200.

[3] = Brain to plasma ratio (B:P) in mice; assay type: in vivo
Protocol: Brain tissue following collection was rinsed with cold saline, dried on filter paper, weighed and snap-frozen by placing on dry ice. All samples were stored frozen at approximately −80° C. until analysis. […] Plasma samples were treated with the identical method (except homogenization step) and concentration of compound in either matrix was calculated based on the generated standard curves.

[4] = system: A549 xenograft tumors; assay: A549 lung carcinoma xenograft in SCID mice; assay type: in vivo; conditions: for mean tumor volume: 5 mg/kg IP Days 1, 15
Protocol: The A549 cell line was derived from explant culture of alveolar carcinoma tissue from a person. The cells were grown in Ham's F12-K tissue culture media with 10% fetal calf serum and 1% penicillin/streptomycin. Cells were routinely trypsinized and passaged 1:10. Thirty-two (32) female CB-17 SCID mice (Charles River Labs strain code 236), aged 5 to 6 weeks were used with a mean pre-treatment body weight of 16.3 grams. Mice were divided into four (4) groups of eight (8) prior to the initiation of treatment based on tumor volume. On the day of implantation, cells were washed in PBS, trypsinized and resuspended in complete media to a density of 2×10^7 cells/mL prior to being mixed with an equal volume of Matrigel. This mixture was then inoculated subcutaneously into mice in a volume of 0.1 mL using a 23G needle.
Animal weights and condition were recorded daily, and tumors were measured on Mondays, Wednesdays and Fridays with micro-calipers, and tumor volume was calculated as (length×width×width)/2.
Animals with weight loss of more than 20% of their starting weight were euthanized. Mice with weight loss of more than 15% of their starting weight were not treated again until weight loss recovered to less than 5% of their starting weight. Any animals with a tumor volume of more than 1500 mm^3 were euthanized.
Dosing solutions were prepared fresh on each day of dosing. Compound 2 was supplied as a lyophilized powder containing 69.61% Compound 2 with the balance made up of Pluronic F-68 and PVP K29/32. This was prepared by dissolving the lyophilized powder in sterile water. Cisplatin was dissolved at 5 mg/mL in DMSO and diluted 1:10 in sterile water for injection. All test articles were administered in a volume of 0.1 mL/10 g body weight.
Statistical differences between treatment groups were determined using Mann-Whitney Rank Sum or ANOVA tests with a critical value of 0.05.

[5] = system: IMQ-induced psoriasis; assay: Imiquimod (IMQ)-induced dermal inflammation/psoriasis model, Study 2; assay type: in vivo, mice; conditions: Compound 2 2.5 mg/kg, cyclophosphamide 10 mg/kg
Protocol: Forty (40) male BALB/c mice (Biological E Limited, Hyderabad (CPCSEA registration number: 36/99/CPCSEA)) were divided into four (4) groups consisting of ten (10) mice each. Animals were randomized based on their body weight. The groups were designated as Group-I (Naïve), Group-II (IMQ; vehicle (PEG 400 and HPBCD)), Group-III (IMQ; Compound 2 (2.5 mg/kg)) and […] (IMQ; cyclophosphamide (10 mg/kg)).
A small area on the dorsum of each mouse was shaved, ensuring that these areas were of equal size/area. Psoriasis was induced in Groups II to IV by topical application of 50 mg of IMQ cream daily from Day 1 to Day 6 on the dorsum of the animals. On Day 1 and Day 2 of the study, four hours after topical application of IMQ, Compound 2 or positive control (cyclophosphamide) or vehicle were administered to animals in pertinent groups. Of note, animals in Group II and Group III were subjected to subcutaneous injections, whereas animals in Group IV received oral administration. The Compound 2, vehicle and cyclophosphamide treatment was terminated on Day 2. These groups of animals were maintained on daily IMQ treatments until Day 6. On Day 7, the psoriasis-induced animals were re-randomized into 3 groups consisting of 10 animals each based on Cumulative Disease Activity Index (CDAI). From Day 7 to Day 9, animals received vehicle or positive control or Compound 2. Of note, on these days animals were not treated with IMQ. From Day 10 to Day 14, the animals were treated alternatively with IMQ (Days 10, 12 and 14), or vehicle, positive control or Compound 2 (Days 11, 13).
All animals were observed daily for a period of 16 days for gross observations, body weight and feed and water intake. On Days 1 and 2, scorings of erythema, scaling, folding and thickening of skin were recorded 2 hours after administration of vehicle/positive control/test compounds, and on Days 3 to 14 scorings were recorded 4 hours after IMQ application, or administration of positive control, vehicle or Compound 2.
Vehicle was prepared by dissolving 40 mg of HPBCD in 70.0 mL of distilled water. Compound 2 was prepared by dissolving 3.59 mg in 0.5% PVP and 0.5% Pluronic. Cyclophosphamide was prepared by dissolving 500 mg of CMC in 100 mL distilled water.
The experimental results shown in Table 10 are expressed as mean±SEM. Data was assessed using one-way ANOVA, and post hoc analysis was performed using Dunnett's test.

AUCInf [2]: below the limit of detection
levels in the brain ([3]; dosed po): below the quantitation limit
SMILES: COc1cc(-c2ncn(/C=C\C(=O)OC(C)C)n2)cc(C(F)(F)F)c1 [Compound X-1]

B:P ([3]; mice, 10 mg/kg po, 2 hours post-dose): 5.0
SMILES: O=C(/C=C\n1cnc(-c2cc(C(F)(F)F)cc(C(F)(F)F)c2)n1)N1CC(F)(F)C1 [Compound X-3]

The next lines start with the compound.

SMILES: O=C(/C=C\n1cnc(-c2cc(C(F)(F)F)cc(C(F)(F)F)c2)n1)NNC(=O)C(=O)N1CCOCC1 [Compound 12, (Z)-3-(3-(3,5-bis(trifluoromethyl)phenyl)-1H-1,2,4-triazol-1-yl)-N′-(2-morpholino-2-oxoacetyl)acrylohydrazide]
IC50 [1]: 1460 nM

SMILES: N.N.[Cl][Pt][Cl] [cisplatin, reference compound]
tumor growth versus vehicle control group (mean AUC of tumor volume, one-way ANOVA) ([4]; Compound 2 5 or 10 mg/kg PO, cisplatin 5 mg/kg IP): no statistically significant reduction in tumor growth
mean tumor volume ([4]; Day 1): 104 mm^3
mean tumor volume ([4]; Day 29): 1136 mm^3

SMILES: O=P1(N(CCCl)CCCl)NCCCO1 (stereo not drawn) [cyclophosphamide, reference compound]
Rate of reduction of DAI, % change from 1st dose administration ([5]; Day 7, 4 hr. post-IMQ/drug administration readings): 23.3%
Rate of reduction of DAI, % change from 1st dose administration ([5]; Day 7, pre-IMQ/drug administration readings): 0.0%
Rate of reduction of DAI, % change from 1st dose administration ([5]; Day 8, 4 hr. post-IMQ/drug administration readings): 20.9%
Rate of reduction of DAI, % change from 1st dose administration ([5]; Day 8, pre-IMQ/drug administration readings): 16.3%
Rate of reduction of DAI, % change from 1st dose administration ([5]; Day 9, 4 hr. post-IMQ/drug administration readings): −41.9%
Rate of reduction of DAI, % change from 1st dose administration ([5]; Day 9, pre-IMQ/drug administration readings): −39.5%
Rate of reduction of DAI, % change from 1st dose administration ([5]; Day 10, 4 hr. post-IMQ/drug administration readings): −86.0%
Rate of reduction of DAI, % change from 1st dose administration ([5]; Day 10, pre-IMQ/drug administration readings): −79.1%
Rate of reduction of DAI, % change from 1st dose administration ([5]; Day 11, 4 hr. post-IMQ/drug administration readings): −25.6%
Rate of reduction of DAI, % change from 1st dose administration ([5]; Day 11, pre-IMQ/drug administration readings): −25.6%
Rate of reduction of DAI, % change from 1st dose administration ([5]; Day 12, 4 hr. post-IMQ/drug administration readings): −34.9%
Rate of reduction of DAI, % change from 1st dose administration ([5]; Day 12, pre-IMQ/drug administration readings): −39.5%
Rate of reduction of DAI, % change from 1st dose administration ([5]; Day 13, 4 hr. post-IMQ/drug administration readings): −32.6%
Rate of reduction of DAI, % change from 1st dose administration ([5]; Day 13, pre-IMQ/drug administration readings): −25.6%
Rate of reduction of DAI, % change from 1st dose administration ([5]; Day 14, 4 hr. post-IMQ/drug administration readings): −32.6%
Rate of reduction of DAI, % change from 1st dose administration ([5]; Day 14, pre-IMQ/drug administration readings): −34.9%
Rate of reduction of DAI, % change from 1st dose administration ([5]; Day 15, pre-IMQ/drug administration readings): −41.9%
